Measured values: patent publication US8227422B2, “Peptides and compounds that bind to a receptor” (Glaxosmithkline LLC, priority 1996, dated 2012)
Like-named read-outs stand apart in the source and are kept apart here. Where a SMILES comes first, the peptide text is derived from it.

Tests used:
TPO receptor = target: T1, TPO receptor (Homo sapiens, UniProt P40238); experiment: Microphysiometer assay: rate of acidification of extracellular medium on TPO receptor stimulation; type: cell-based
T1 sequence (P40238 26-635): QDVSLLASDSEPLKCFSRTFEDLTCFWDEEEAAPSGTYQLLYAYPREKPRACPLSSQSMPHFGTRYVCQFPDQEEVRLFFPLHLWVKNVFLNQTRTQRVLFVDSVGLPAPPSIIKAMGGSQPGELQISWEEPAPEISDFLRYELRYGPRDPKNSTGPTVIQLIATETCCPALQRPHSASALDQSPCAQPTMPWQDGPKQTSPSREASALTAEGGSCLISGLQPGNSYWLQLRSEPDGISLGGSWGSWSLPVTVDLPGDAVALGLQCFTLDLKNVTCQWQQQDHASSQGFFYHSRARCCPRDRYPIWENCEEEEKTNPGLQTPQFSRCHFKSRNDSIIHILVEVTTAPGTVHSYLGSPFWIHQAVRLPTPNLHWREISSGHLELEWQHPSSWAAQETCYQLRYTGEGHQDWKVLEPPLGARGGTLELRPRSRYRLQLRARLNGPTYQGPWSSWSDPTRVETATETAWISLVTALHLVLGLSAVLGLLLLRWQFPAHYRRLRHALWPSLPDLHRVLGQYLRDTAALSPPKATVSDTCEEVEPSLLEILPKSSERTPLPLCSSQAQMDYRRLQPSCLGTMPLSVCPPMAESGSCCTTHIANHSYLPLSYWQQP
Protocol: In this example cyclized compounds were subjected to three assays. […] Finally, a microphysiometer (Molecular Devices Corp.) assay was performed. […] The ranges for EC50 are symbolically indicated as for IC50 described above.

TPO-R = target: T2, TPO-R (Homo sapiens, UniProt P40238); experiment: Competition binding assay (equilibrium binding ELISA, MBP-TPO156 tracer) on immobilized TPO-R; details: read-out: IC50
T2 construct: made in house
T2 sequence (P40238 26-491 limits assumed): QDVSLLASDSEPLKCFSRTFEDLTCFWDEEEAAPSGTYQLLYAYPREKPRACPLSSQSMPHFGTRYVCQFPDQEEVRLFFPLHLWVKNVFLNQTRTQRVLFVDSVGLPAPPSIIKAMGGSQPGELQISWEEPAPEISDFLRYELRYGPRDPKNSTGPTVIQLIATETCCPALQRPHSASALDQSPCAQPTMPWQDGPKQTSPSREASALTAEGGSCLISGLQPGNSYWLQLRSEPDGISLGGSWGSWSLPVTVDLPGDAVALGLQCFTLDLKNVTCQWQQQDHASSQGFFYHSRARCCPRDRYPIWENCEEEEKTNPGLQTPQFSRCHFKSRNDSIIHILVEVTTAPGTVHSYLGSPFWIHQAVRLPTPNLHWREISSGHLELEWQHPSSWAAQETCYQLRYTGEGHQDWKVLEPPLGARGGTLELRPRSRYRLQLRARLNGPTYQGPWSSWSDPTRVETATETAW
Protocol: A variety of methods can be used to evaluate IC50 values. For example, an equilibrium binding ELISA assay, using either MBP-TPO or lacI-peptide tracer, was used to determine whether the peptides inhibit the binding of TPO to the extracellular domain of the TPO receptor. Typically, the IC50 value were determined using the free peptide. The IC50 value can be determined using the free peptide, which optionally can be C-terminally amidated, or can be prepared as an ester or other carboxy amide.
Binding affinities of chemically synthesized peptides for TPO-R were measured in a competition binding assay. The wells of a microtiter plate were coated with 1 mg streptavidin, blocked with PBS/1% BSA, followed by 50 ng of biotinylated anti-receptor immobilizing antibody (Ab179). The wells were then treated with a 1:10 dilution of soluble TPO-R harvest. Various concentrations of peptide or peptide mimetic were mixed with a constant amount of a truncated form of TPO consisting of residues 1-156 fused to the C-terminus of maltose binding protein (MBP-TPO156). The peptide MBP-TPO156 mixtures were added to the TPO-R coated wells, incubated for 2 hours at 4° C. and then washed with PBS. The amount of MBP-TPO156 that was bound at equilibrium was measured by adding a rabbit anti-sera directed against MBP, followed by alkaline phosphatase conjugated goat anti-rabbit IgG. The amount of alkaline phosphatase in each well was then determined using standard methods.
The assay is conducted over a range of peptide concentrations and the results are graphed such that the y axis represents the amount of bound MBP-TPO156 and the x axis represents the concentration of peptide or peptide mimetic.

[1] = target: T3, human TPO-R (transfected Ba/F3 cells) (Homo sapiens, UniProt P40238); experiment: Thrombopoietin dependent cell proliferation assay (MTT), TPO-R transfected Ba/F3 cells; type: cell-based
T3 construct: Murine IL-3 dependent Ba/F3 cells were transfected with full length human TPO-R; expressed in transfected cells; host or cells: murine Ba/F3 cells
T3 sequence (P40238 26-635): T1 sequence (P40238 26-635)
Protocol: Bioactivity of the peptides can be measured using a thrombopoietin dependent cell proliferation assay. Murine IL-3 dependent Ba/F3 cells were transfected with full length human TPO-R. In the absence of IL-3 (WEHI-3 conditioned media), these cells are dependent on TPO for proliferation.
The cells were grown in complete RPMI-10 media, containing 10% WEHI-3 conditioned media, then washed twice in PBS, resuspended in media which lacked WEHI-3 conditioned media, and added to wells containing dilutions of peptide or TPO at 2×10^4 cells/well. The cells were incubated for 48 hours at 37° C. in a humidified 5% CO2 atmosphere and metabolic activity was assayed by the reduction of MTT to formazan, with absorbance at 570 nm measured on an ELISA plate reader.

[2] = Table 7, dimer compounds, read-out: EC50 (nM) Microonys.
[3] = Table 4, cyclized compounds, microphysiometer, read-out: EC50 (nM) Microonys
[4] = Table 4, cyclized compounds, read-out: EC50 (nM) Proliferation

EC50 (TPO receptor; [2])	IC50 (TPO-R; Table 7, dimer compounds)	EC50 (TPO receptor; [3])	EC50 [1, 4]	IC50 (TPO-R; Table 4, cyclized compounds)	SMILES	other results
< 500 nM	≤ 0.5 µM				CC(C)C[C@H](NC(=O)[C@H](Cc1c[nH]c2ccccc12)NC(=O)[C@H](CCC(N)=O)NC(=O)[C@H](CCCNC(=N)N)NC(=O)[C@H](CC(C)C)NC(=O)[C@@H](NC(=O)[C@@H]1CCCN1C(=O)CNC(=O)[C@H](CCC(=O)O)NC(=O)[C@@H](N)CCCCN)[C@@H](C)O)C(=O)N[C@@H](C)C(=O)N[C@@H](C)C(=O)N[C@@H](CCCNC(=N)N)C(=O)N[C@@H](C)C(=O)NCCCC[C@H](NC(=O)CCNC(=O)[C@H](C)NC(=O)[C@H](CCCNC(=N)N)NC(=O)[C@H](C)NC(=O)[C@H](C)NC(=O)[C@H](CC(C)C)NC(=O)[C@H](Cc1c[nH]c2ccccc12)NC(=O)[C@H](CCC(N)=O)NC(=O)[C@H](CCCNC(=N)N)NC(=O)[C@H](CC(C)C)NC(=O)[C@@H](NC(=O)[C@@H]1CCCN1C(=O)CNC(=O)[C@H](CCC(=O)O)NC(=O)[C@@H](N)CCCCN)[C@@H](C)O)C(N)=O	
		< 200000 nM	< 500 nM	≤ 0.5 µM	CC[C@H](C)[C@@H]1NC(=O)[C@H](Cc2c[nH]c3ccccc23)NC(=O)[C@H](CCC(=O)O)NC(=O)[C@H](CCCNC(=N)N)NC(=O)[C@H](CC(C)C)NC(=O)[C@H]([C@@H](C)O)NC(=O)[C@@H]2CCCN2C(=O)CNC(=O)[C@H](CC(=O)O)NC(=O)[C@H](C)NC(=O)C(c2ccccc2)SC[C@@H](C(N)=O)NC(=O)[C@H](Cc2ccccc2)NC(=O)[C@H](CO)NC1=O (stereo partly drawn) (HELM PEPTIDE1{A.D.G.P.T.L.R.E.W.I.S.F.C.[am]}|CHEM1{[O=C(C(c1ccccc1)[*:2])[*:1]]}$PEPTIDE1,CHEM1,1:R1-1:R1|PEPTIDE1,CHEM1,13:R3-1:R2$$$V2.0)	
		< 200000 nM	< 200000 nM	≤ 200 µM	CC[C@H](C)[C@@H]1NC(=O)[C@H](Cc2c[nH]c3ccccc23)NC(=O)[C@H](CCC(=O)O)NC(=O)[C@H](CCCNC(=N)N)NC(=O)[C@H](CC(C)C)NC(=O)[C@H]([C@@H](C)O)NC(=O)[C@@H]2CCCN2C(=O)CNC(=O)[C@H](CC(=O)O)NC(=O)[C@H](C)NC(=O)CC[C@@H](C(N)=O)NC(=O)[C@H](Cc2ccccc2)NC(=O)[C@H](CO)NC1=O (HELM PEPTIDE1{A.D.G.P.T.L.R.E.W.I.S.F.E.[am]}$PEPTIDE1,PEPTIDE1,1:R1-13:R3$$$V2.0)	
		< 200000 nM	< 200000 nM	≤ 200 µM	CC[C@H](C)[C@@H]1NC(=O)[C@H](Cc2c[nH]c3ccccc23)NC(=O)[C@H](CCC(=O)O)NC(=O)[C@H](CCCNC(=N)N)NC(=O)[C@H](CC(C)C)NC(=O)[C@H]([C@@H](C)O)NC(=O)[C@@H]2CCCN2C(=O)CNC(=O)[C@H](CC(=O)O)NC(=O)[C@H](C)NC(=O)C[S+]([O-])C[C@@H](C(N)=O)NC(=O)[C@H](Cc2ccccc2)NC(=O)[C@H](CO)NC1=O (stereo partly drawn) (HELM PEPTIDE1{A.D.G.P.T.L.R.E.W.I.S.F.[O=C([C@H](C[S+]([O-])CC(=O)[*:3])N[*:1])[*:2]].[am]}$PEPTIDE1,PEPTIDE1,1:R1-13:R3$$$V2.0)	
< 500 nM	≤ 0.5 µM				CC[C@H](C)[C@H](NC(=O)[C@H](Cc1c[nH]c2ccccc12)NC(=O)[C@H](CCC(=O)O)NC(=O)[C@H](CCCNC(=N)N)NC(=O)[C@H](CC(C)C)NC(=O)[C@@H](NC(=O)[C@@H]1CCCN1C(=O)CNC(=O)[C@H](CC(=O)O)NC(=O)[C@H](C)NC(=O)[C@@H](N)CSSC[C@H](N)C(=O)N[C@@H](C)C(=O)N[C@@H](CC(=O)O)C(=O)NCC(=O)N1CCC[C@H]1C(=O)N[C@H](C(=O)N[C@@H](CC(C)C)C(=O)N[C@@H](CCCNC(=N)N)C(=O)N[C@@H](CCC(=O)O)C(=O)N[C@@H](Cc1c[nH]c2ccccc12)C(=O)N[C@H](C(=O)N[C@@H](CO)C(=O)N[C@@H](Cc1ccccc1)C(N)=O)[C@@H](C)CC)[C@@H](C)O)[C@@H](C)O)C(=O)N[C@@H](CO)C(=O)N[C@@H](Cc1ccccc1)C(N)=O (HELM PEPTIDE1{C.A.D.G.P.T.L.R.E.W.I.S.F.[am]}|PEPTIDE2{C.A.D.G.P.T.L.R.E.W.I.S.F.[am]}$PEPTIDE1,PEPTIDE2,1:R3-1:R3$$$V2.0)	EC50 ([1]; Table 7, dimer compounds, read-out: EC50 (nM) Prolif.): < 500 nM
		< 200000 nM	< 200000 nM	≤ 0.5 µM	CC[C@H](C)[C@@H]1NC(=O)[C@H](Cc2c[nH]c3ccccc23)NC(=O)[C@H](CCC(=O)O)NC(=O)[C@H](CCCNC(=N)N)NC(=O)[C@H](CC(C)C)NC(=O)[C@H]([C@@H](C)O)NC(=O)[C@@H]2CCCN2C(=O)CNC(=O)[C@H](CC(=O)O)NC(=O)[C@H](C)NC(=O)[C@@H](N)CSSC[C@H](C(N)=O)NC(=O)[C@H](Cc2ccccc2)NC(=O)[C@H](CO)NC1=O (HELM PEPTIDE1{C.A.D.G.P.T.L.R.E.W.I.S.F.[dC].[am]}$PEPTIDE1,PEPTIDE1,1:R3-14:R3$$$V2.0)	
< 500 nM	≤ 0.5 µM				CC[C@H](C)[C@H](NC(=O)[C@@H](N)CSSC[C@H](N)C(=O)N[C@H](C(=O)N[C@@H](CCC(=O)O)C(=O)NCC(=O)N1CCC[C@H]1C(=O)N[C@H](C(=O)N[C@@H](CC(C)C)C(=O)N[C@@H](CCCNC(=N)N)C(=O)N[C@@H](CCC(N)=O)C(=O)N[C@@H](Cc1c[nH]c2ccccc12)C(=O)N[C@@H](CC(C)C)C(=O)N[C@@H](C)C(=O)N[C@@H](C)C(=O)N[C@@H](CCCNC(=N)N)C(=O)N[C@@H](C)C(N)=O)[C@@H](C)O)[C@@H](C)CC)C(=O)N[C@@H](CCC(=O)O)C(=O)NCC(=O)N1CCC[C@H]1C(=O)N[C@H](C(=O)N[C@@H](CC(C)C)C(=O)N[C@@H](CCCNC(=N)N)C(=O)N[C@@H](CCC(N)=O)C(=O)N[C@@H](Cc1c[nH]c2ccccc12)C(=O)N[C@@H](CC(C)C)C(=O)N[C@@H](C)C(=O)N[C@@H](C)C(=O)N[C@@H](CCCNC(=N)N)C(=O)N[C@@H](C)C(N)=O)[C@@H](C)O (HELM PEPTIDE1{C.I.E.G.P.T.L.R.Q.W.L.A.A.R.A.[am]}|PEPTIDE2{C.I.E.G.P.T.L.R.Q.W.L.A.A.R.A.[am]}$PEPTIDE1,PEPTIDE2,1:R3-1:R3$$$V2.0)	
		< 200000 nM	< 200000 nM	≤ 0.5 µM	CC[C@H](C)[C@@H]1NC(=O)[C@H](Cc2c[nH]c3ccccc23)NC(=O)[C@H](CCC(=O)O)NC(=O)[C@H](CCCNC(=N)N)NC(=O)[C@H](CC(C)C)NC(=O)[C@H]([C@@H](C)O)NC(=O)[C@@H]2CCCN2C(=O)CNC(=O)[C@H](CC(=O)O)NC(=O)[C@H](C)NC(=O)[C@H](N)C(C)(C)SSC[C@H](C(N)=O)NC(=O)[C@H](Cc2ccccc2)NC(=O)[C@H](CO)NC1=O (HELM PEPTIDE1{[CC(C)(S[*:3])[C@@H](N)C(=O)[*:2]].A.D.G.P.T.L.R.E.W.I.S.F.[dC].[am]}$PEPTIDE1,PEPTIDE1,1:R3-14:R3$$$V2.0)	
					CC[C@H](C)[C@@H]1NC(=O)[C@H](Cc2c[nH]c3ccccc23)NC(=O)[C@H](CCC(=O)O)NC(=O)[C@H](CCCNC(=N)N)NC(=O)[C@H](CC(C)C)NC(=O)[C@H]([C@@H](C)O)NC(=O)[C@@H]2CCCN2C(=O)[C@@H](N)CSSC[C@@H](C(N)=O)NC(=O)[C@H](Cc2ccccc2)NC(=O)[C@H](CO)NC1=O [ADG-deletion] (HELM PEPTIDE1{C.P.T.L.R.E.W.I.S.F.C.[am]}$PEPTIDE1,PEPTIDE1,1:R3-11:R3$$$V2.0; N-terminus and C-terminus assumed)	EC50 (TPO receptor; Table 5, value in parentheses, read-out: EC50 (nM), microphysiometer results given in parentheses): < 200000 nM; IC50 (TPO-R; Table 5): ≤ 200 µM
